From patent US7824661B2, “Technetium- and rhenium-bis(heteroaryl) complexes, and methods of use thereof” (priority 2002, dated 2010)

Experiments:
[1] = Whole body biodistribution studies in rats; type: in vivo, Rats (Sprague Dawley, male)
Experimental: The animal care and use procedures were in accordance with the Guide for the Care and Use of Laboratory Animals and the Animal Welfare Act. The vertebrate animals in this research project were used to investigate the biodistribution and pharmacokinetics of the rotenone derivatives and determine uptake in the heart. Rats (Sprague Dawley, male, at 80-100 grams each) were used for the whole body biodistribution studies. The Tc-complexes, as well as Cardiolite™, were evaluated at three time points; 5, 30, and 120 minutes, with five animals per time point. In order to provide accurate statistics in the clearance rate measurements and to account for intra-species variation it was necessary to use this number of animals. The product was diluted to ˜10 μCi/100 μl using freshly prepared 10% ethanol/saline (0.9%) solution. The rats were injected via a lateral tail vein with a volume of 0.1 mL. The rats were sacrificed by decapitation, with immediate blood collection at the desired time points. Whole body biodistributions were performed on the animals immediately following decapitation, organ and tissue samples were taken and washed of excess blood, blotted dry and weighed. Radioactivity was assayed using automated Nal well counter. All tissue samples were counted together along with an aliquot of the injected dose so that % injected dose and % injected dose per gram of tissue could be calculated. […]

[2] = type: physicochemical
Experimental: The stability and robustness of the technetium-di(pyridine) complexes was assessed using challenges with free cysteine and histidine. Specifically, the experiments were performed using [^99mTc(CO)3(dipyridinemethylamine)]^+1.
This approach enables the creation of libraries containing the {M(CO)31}^1+ core. We have begun to define the biological fate of the ^99mTc-dipyridine complexes, allowing us to compare a series of future tridentate analogs. The dipyridine labeling proceeded in high yield and was stable to excess histidine and cysteine challenges for more than 18 hours. […] Activity decreased in all tissues as a function of time, except in the GI tract, which increased with time.
[^99mTc(CO)3(H2O)3]^+ was heated with [{N,N-di(pyridyl-2-methyl)}N-butyl-phthalimide in 0.5 mL (1 mg/mL) of methanol at 100° C. for 60 minutes. […] The product eluted with methanol at 20.8 minutes. The HPLC analysis was performed using a Supelco C18 column, 25 cm×4.6 mm column (5 μm pore size), equipped with 2 cm guard using solvent A=0.05 M triethylammonium phosphate buffer pH 2.5 and solvent B=methanol. The method employed was a gradient 5-95% B, 1 mL/minute for 30 minutes. The gradient ramped from 5-95 from 3-20 minutes.

[^99mTc(CO)3(DpK)]
blood clearance, % ID/g ([1]; at 5 minutes): 0.6 % ID/g | blood clearance, % ID/g ([1]; by 30 minutes): 0.07 % ID/g

[^99mTc(CO)3(dipyridinemethylamine)]^+1
stability and robustness in challenges with free cysteine and histidine [2]: stable | change in the components by HPLC analysis ([2]; aqueous solution of the complex incubated with cysteine for 18 hours at 37° C. at pH 7.4): no significant change
